Like-named read-outs stand apart in the source and are kept apart here.
Key:
Assay in all cases: Test A preemergence
Type in all cases: in vivo
Kochia (Kochia scoparia) = details: Bassia scoparia, pre-emergence, 240 h; for pest or weed control at 125 g/ha: 125 g ai/ha; for pest or weed control at 500 g/ha: 500 g ai/ha
Method in brief: (§1)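 Seeds sprayed preemergence with a directed soil spray, or plants at 2 to 10 cm height and one- to two-leaf stage sprayed postemergence, with test chemicals in a non-phytotoxic solvent mixture containing surfactant, in loam soil–sand blend. Injury rated visually against untreated controls after about 10 d in greenhouse, 0 (no effect) to 100 (complete control).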

[1] = test system: barnyardgrass (Echinochloa crus-galli); details: Echinochloa crus-galli, pre-emergence, 240 h; for pest or weed control at 125 g/ha: 125 g ai/ha; for pest or weed control at 500 g/ha: 500 g ai/ha
Method in brief: as §1

[2] = test system: giant foxtail (Setaria faberii); details: Setaria faberi, pre-emergence, 240 h; for pest or weed control at 125 g/ha: 125 g ai/ha; for pest or weed control at 500 g/ha: 500 g ai/ha
Method in brief: as §1

[3] = test system: ragweed (common ragweed, Ambrosia elatior); details: Ambrosia artemisiifolia, pre-emergence, 240 h; for pest or weed control at 125 g/ha: 125 g ai/ha; for pest or weed control at 500 g/ha: 500 g ai/ha
Method in brief: as §1

[4] = test system: ryegrass, Italian (Italian ryegrass, Lolium multiflorum); details: Lolium multiflorum, pre-emergence, 240 h; for pest or weed control at 125 g/ha: 125 g ai/ha; for pest or weed control at 500 g/ha: 500 g ai/ha
Method in brief: as §1

[5] = Preemergence, visual injury rating after approximately 10 d, read-out: Kochia plant response rating (0 to 100 scale, 0 is no effect, 100 is complete control)
[6] = preemergence, visual injury rating about 10 d after treatment, 0 to 100 scale (0 no effect, 100 complete control), read-out: Kochia plant response rating
[7] = Preemergence, visual injury rating after approximately 10 d, read-out: Barnyardgrass plant response rating (0 to 100 scale, 0 is no effect, 100 is complete control)
[8] = preemergence, visual injury rating about 10 d after treatment, 0 to 100 scale (0 no effect, 100 complete control), read-out: Barnyardgrass plant response rating
[9] = Preemergence, visual injury rating after approximately 10 d, read-out: Foxtail, Giant plant response rating (0 to 100 scale, 0 is no effect, 100 is complete control)
[10] = preemergence, visual injury rating about 10 d after treatment, 0 to 100 scale (0 no effect, 100 complete control), read-out: Foxtail, Giant plant response rating
[11] = Preemergence, visual injury rating after approximately 10 d, read-out: Ragweed plant response rating (0 to 100 scale, 0 is no effect, 100 is complete control)
[12] = preemergence, visual injury rating about 10 d after treatment, 0 to 100 scale (0 no effect, 100 complete control), read-out: Ragweed plant response rating
[13] = Preemergence, visual injury rating after approximately 10 d, read-out: Ryegrass, Italian plant response rating (0 to 100 scale, 0 is no effect, 100 is complete control)
[14] = preemergence, visual injury rating about 10 d after treatment, 0 to 100 scale (0 no effect, 100 complete control), read-out: Ryegrass, Italian plant response rating
[15] = preemergence, 0 to 100 scale where 0 is no effect and 100 is complete control, read-out: Kochia plant response rating
[16] = Preemergence, visual injury vs untreated controls after approximately 10 d, read-out: Kochia plant response rating (0 to 100 scale where 0 is no effect and 100 is complete control)
[17] = preemergence, 0 to 100 scale where 0 is no effect and 100 is complete control, read-out: Barnyardgrass plant response rating
[18] = Preemergence, visual injury vs untreated controls after approximately 10 d, read-out: Barnyardgrass plant response rating (0 to 100 scale where 0 is no effect and 100 is complete control)
[19] = preemergence, 0 to 100 scale where 0 is no effect and 100 is complete control, read-out: Foxtail, Giant plant response rating
[20] = Preemergence, visual injury vs untreated controls after approximately 10 d, read-out: Foxtail, Giant plant response rating (0 to 100 scale where 0 is no effect and 100 is complete control)
[21] = preemergence, 0 to 100 scale where 0 is no effect and 100 is complete control, read-out: Ragweed plant response rating
[22] = Preemergence, visual injury vs untreated controls after approximately 10 d, read-out: Ragweed plant response rating (0 to 100 scale where 0 is no effect and 100 is complete control)
[23] = preemergence, 0 to 100 scale where 0 is no effect and 100 is complete control, read-out: Ryegrass, Italian plant response rating
[24] = Preemergence, visual injury vs untreated controls after approximately 10 d, read-out: Ryegrass, Italian plant response rating (0 to 100 scale where 0 is no effect and 100 is complete control)

SMILES	pest or weed control at 125 g/ha (Kochia (Kochia scoparia); [5]) [%]	pest or weed control at 500 g/ha (Kochia (Kochia scoparia); [6]) [%]	pest or weed control at 125 g/ha [1, 7] [%]	pest or weed control at 500 g/ha [1, 8] [%]	pest or weed control at 125 g/ha [2, 9] [%]	pest or weed control at 500 g/ha [2, 10] [%]	pest or weed control at 125 g/ha [3, 11] [%]	pest or weed control at 500 g/ha [3, 12] [%]	pest or weed control at 125 g/ha [4, 13] [%]	pest or weed control at 500 g/ha [4, 14] [%]	pest or weed control at 125 g/ha (Kochia (Kochia scoparia); [15]) [%]	pest or weed control at 500 g/ha (Kochia (Kochia scoparia); [16]) [%]	pest or weed control at 125 g/ha [1, 17] [%]	pest or weed control at 500 g/ha [1, 18] [%]	pest or weed control at 125 g/ha [2, 19] [%]	pest or weed control at 500 g/ha [2, 20] [%]	pest or weed control at 125 g/ha [3, 21] [%]	pest or weed control at 500 g/ha [3, 22] [%]	pest or weed control at 125 g/ha [4, 23] [%]	pest or weed control at 500 g/ha [4, 24] [%]	further results
CC(C)COc1cccc([C@H]2CNC(=O)[C@@H]2C(=O)Nc2cccc(F)c2F)c1 [Compound 965]	0	60	90	90	90	90	0	0	70	90											
CSc1ccccc1NC(=O)[C@H]1C(=O)N(C)C[C@@H]1c1cc(C)cc(F)c1 [Compound 851]											20	70	90	90	90	90	0	30	0	70	
COc1c(F)ccc([C@H]2CN(C)C(=O)[C@@H]2C(=O)Nc2ccc(F)c(F)c2F)c1Cl [Compound 895]											90	90	90	100	90	90	0	0	90	70	
COc1c(F)ccc([C@H]2CN(C)C(=O)[C@@H]2C(=O)Nc2ccccc2F)c1Cl [Compound 892]											70	90	100	100	100	100	20	50	30	90	
Cc1cc([C@H]2CN(C)C(=O)[C@@H]2C(=O)Nc2ccccc2S(C)(=O)=O)ccc1Cl [Compound 944]	0	70	90	90	90	90	50	50	0	0											
Cc1c(F)ccc([C@H]2CNC(=O)[C@@H]2C(=O)Nc2ccccc2S(C)(=O)=O)c1F [Compound 832]											90	100	40	80	0	80	40	60	0	30	
Cc1c(F)ccc([C@H]2CN(C)C(=O)[C@@H]2C(=O)Nc2cccc(F)c2F)c1F [Compound 834]											80	90	90	90	90	100	0	20	70	80	
Cc1nc([C@H]2CNC(=O)[C@@H]2C(=O)Nc2cccc(F)c2F)cs1 [Compound 1180]																					pest or weed control at 125 g/ha (Kochia (Kochia scoparia); preemergence, 0 to 100 scale where 0 is no effect and 100 is complete control, approx. 10 d, read-out: Kochia plant response rating): 0%; pest or weed control at 500 g/ha (Kochia (Kochia scoparia); [15]): 30%; pest or weed control at 125 g/ha ([1]; preemergence, 0 to 100 scale where 0 is no effect and 100 is complete control, approx. 10 d, read-out: Barnyardgrass plant response rating): 20%; pest or weed control at 500 g/ha [1, 17]: 70%; pest or weed control at 125 g/ha ([2]; preemergence, 0 to 100 scale where 0 is no effect and 100 is complete control, approx. 10 d, read-out: Foxtail, Giant plant response rating): 0%; pest or weed control at 500 g/ha [2, 19]: 50%; pest or weed control at 125 g/ha ([3]; preemergence, 0 to 100 scale where 0 is no effect and 100 is complete control, approx. 10 d, read-out: Ragweed plant response rating): 0%; pest or weed control at 500 g/ha [3, 21]: 0%; pest or weed control at 125 g/ha ([4]; preemergence, 0 to 100 scale where 0 is no effect and 100 is complete control, approx. 10 d, read-out: Ryegrass, Italian plant response rating): 0%; pest or weed control at 500 g/ha [4, 23]: 0%
COc1ccc([C@H]2CN(C)C(=O)[C@@H]2C(=O)Nc2cccc(F)c2F)cc1F [Compound 1021]	70	90	100	100	100	100	70	70	0	20											
CN1C[C@H](c2csc(C(F)(F)F)c2)[C@@H](C(=O)Nc2cccc(F)c2F)C1=O [Compound 959]	70	90	90	100	90	100	70	70	20	60											
CN1CC[C@H](c2ccc(OC(F)(F)F)cc2)[C@@H](C(=O)Nc2cccc(F)c2F)C1=O [Compound 999]	0	20	70	90	90	90	0	30	0	50											

— patent publication US12077503B2, “Substituted cyclic amides and their use as herbicides” (FMC CORPORATION, priority 2015, dated 2024)
